Converted amounts (≈) assume the structure as drawn. Read-outs that look alike come from different tables or passages of the source.
Columns and labels:
Water solubility = assay type: physicochemical; conditions: for solubility: water, read-out: Wasserlöslichkeit
[1] = Heat sterilisation of aqueous injection solutions (stability); assay type: physicochemical; conditions: 120 °C for 30 minutes
Description: Beispielsweise werden die nach den vorstehenden Beispielen erhaltenen reinen 5-Alkoxy-2,4,6-trijodisopthalsäurediamide unter sterilen Bedingungen in der gewünschten Menge bidestilliertem Wasser gelöst, filtriert, unter Zusatz von geringen Mengen EDTA-Na2 und Puffersubstanzen auf pH 6,9 bis 7,1 eingestellt, in Serumflaschen oder Ampullen abgefüllt und anschliessend sterilisiert.

[2] = result in words, no temperature stated

With `COCCOCCOCCOCCOCCOc1c(I)c(C(=O)NC(CO)CO)c(I)c(C(=O)NC(CO)CO)c1I` [Beispiel 3, 5-(3,6,9,12,15-Pentaoxahexadecyl)oxy-2,4,6-trijod-isophthalsäure-bis-(1,3-dihydroxyisopropylamid)] the solubility (Water solubility; bei Raumtemperatur) was > 1000 mg/mL and the “sterilisieren durch Erhitzen” value [1] was “ohne Schwierigkeiten”.

With “5-(3,6,9-Triuxadecyl)oxy-2,4,6-trijodisophthalsäure-bis(1,3-dihydroxy- isopropylamid) [Beispiel 2]” the Wasserlöslichkeit (Water solubility; bei Raumtemperatur) was > 100 % (g/v) and the “sterilisieren durch Erhitzen” value [1] was “ohne Schwierigkeiten”.

For `CN(CC(O)CO)C(=O)COc1c(I)c(C(=O)NC(CO)CO)c(I)c(C(=O)NC(CO)CO)c1I` (centres unmarked) [Beispiel 19, 5-(N-Methyl-N-2,3-dihydroxypropyl)aminocarbonylmethoxy-2,4,6-trijodiso-phthalsäure-bis-(1,3-dihydroxyisopropylamid)], the solubility (Water solubility; bei 20 °C) was > 1000 mg/mL.

For `C[C@@H](Oc1c(I)c(C(=O)NC(CO)CO)c(I)c(C(=O)NC(CO)CO)c1I)C(=O)NC(CO)CO` [Beispiel 14, R(-)-5-(1(1,3-Dihydroxyisopropylaminocarbonyl)ethoxy)-2,4,6-trijodiso-phthalsäure-bis(1,3-dihydroxyisopropylamid)], the Wasserlöslichkeit (Water solubility; [2]) was “gering”.

In the case of `CN(CC(O)CO)C(=O)COc1c(I)c(C(=O)NCC(O)CO)c(I)c(C(=O)NCC(O)CO)c1I` (centres unmarked) [Beispiel 34, 5-(N-Methyl-N-2,3-dihydroxypropyl)aminocarbonylmethoxy-2,4,6-trijod-isophthalsäure-bis(2,3-dihydroxypropylamid)], the solubility (Water solubility; bei 25 °C) is reported as > 1000 mg/mL.

In the case of `O=C(COc1c(I)c(C(=O)NCC(O)CO)c(I)c(C(=O)NCC(O)CO)c1I)NC(CO)CO` (centres unmarked) [Beispiel 48, 5-(1,3-Dihydroxyisopropylaminocarbonyl)methoxy-2,4,6-trijodisophthal-säure-bis(2,3-dihydroxypropylamid)], the Wasserlöslichkeit (Water solubility; [2]) is reported as “leicht löslich in Wasser”.

For `O=C(NC(CO)CO)c1c(I)c(OCC(O)CO)c(I)c(C(=O)NC(CO)CO)c1I` (centres unmarked) [Beispiel 8, 5-(2,3-Dihydroxypropyl)oxy-2,4,6-trijodisophthalsäure-bis(1,3-dihydroxy-isopropylamid)], the Wasserlöslichkeit (Water solubility; [2]) was “löslich in Wasser”.

In the case of `C[C@@H](Oc1c(I)c(C(=O)NC(CO)CO)c(I)c(C(=O)NC(CO)CO)c1I)C(=O)NC(CO)(CO)CO` [Beispiel 16, R(-)-5(1(1,3-Dihydroxy-2-hydroxymethyl-isopropylaminocarbonyl)ethoxy)-2,4,6-trijodisophthalsäure-bis(1,3-dihydroxyisopropylamid)], the solubility (Water solubility; bei 25 °C) is reported as 25 mg/mL (≈ 28.4 mM) and the solubility (Water solubility; bei 100 °C) is reported as 1000 mg/mL (≈ 1130 mM).

With `O=C(NC(CO)CO)c1c(I)c(OCC(CO)(CO)CO)c(I)c(C(=O)NC(CO)CO)c1I` [Beispiel 10, 5-(2,2-Bis-(hydroxymethyl)-3-hydroxypropyl)oxy-2,4,6-trijodisophthal-säure-bis(1,3-dihydroxyisopropylamid)] the Wasserlöslichkeit (Water solubility; [2]) was “spielend leicht wasserlöslich”.

With `O=C(NC(CO)CO)c1c(I)c(OCCOCCOCCO)c(I)c(C(=O)NC(CO)CO)c1I` [Beispiel 5] the solubility (Water solubility; bei Raumtemperatur) was > 1000 mg/mL and the “sterilisieren durch Erhitzen” value [1] was “ohne Schwierigkeiten”.

For `O=C(NC(CO)CO)c1c(I)c(OCCOCCOCCOc2c(I)c(C(=O)NC(CO)CO)c(I)c(C(=O)NC(CO)CO)c2I)c(I)c(C(=O)NC(CO)CO)c1I` [Beispiel 43, 1,8-Bis-(3,5-bis(1,3-dihydroxyisopropylaminocarbonyl)-2,4,6-trijod-phenoxy)-3,6-dioxaoctan], the Wasserlöslichkeit (Water solubility; [2]) was “Wenig löslich in Wasser”.

In the case of `COCCOCCOCCOCCOCCOCCOCCOc1c(I)c(C(=O)NC(CO)CO)c(I)c(C(=O)NC(CO)CO)c1I` [Beispiel 4, 5-(3,6,9,12,15,18,21-Heptaoxadocosyl)oxy-2,4,6-trijodisophthalsäure-bis(1,3-dihydroxyisopropylamid)], the solubility (Water solubility; bei 20 °C) is reported as > 1000 mg/mL and the “sterilisieren durch Erhitzen” value [1] is reported as “ohne Schwierigkeiten”.

With `CNC(=O)COc1c(I)c(C(=O)NC(CO)CO)c(I)c(C(=O)NC(CO)CO)c1I` [Beispiel 11, 5-Methylaminocarbonylmethoxy-2,4,6-trijod-isophthalsäure-bis(1,3-di-hydroxyisopropylamid)] the solubility (Water solubility; bei Siedetemperatur) was 100 mg/mL (≈ 129 mM).

In the case of `CNC(=O)COc1c(I)c(C(=O)NCC(O)CO)c(I)c(C(=O)NCC(O)CO)c1I` (centres unmarked) [Beispiel 30, 5-Methylaminocarbonylmethoxy-2,4,6-trijodisophthalsäure-bis(2,3-di-hydroxypropylamid)], the solubility (Water solubility; bei Siedetemperatur) is reported as 20 mg/mL (≈ 25.7 mM).

In the case of `CN(C[C@H](O)[C@@H](O)[C@H](O)[C@H](O)CO)C(=O)COc1c(I)c(C(=O)NC(CO)CO)c(I)c(C(=O)NC(CO)CO)c1I` [Beispiel 27, 5-(N-Methyl-N-2,3,4,5,6-pentahydroxyhexyl)aminocarbonylmethoxy-2,4,6-trijodisophthalsäure-bis(1,3-dihydroxyisopropylamid)], the solubility (Water solubility; bei 20 °C) is reported as 1000 mg/mL (≈ 1060 mM).

For `O=C(COc1c(I)c(C(=O)NC(CO)CO)c(I)c(C(=O)NC(CO)CO)c1I)NCC(O)C(O)CNC(=O)COc1c(I)c(C(=O)NC(CO)CO)c(I)c(C(=O)NC(CO)CO)c1I` (centres unmarked) [Beispiel 47, 1,4-Bis-(3,5-bis(1,3-dihydroxyisopropylaminocarbonyl)-2,4,6-trijod-phenoxy-acetylamino)-2,3-dihydroxybutan], the Wasserlöslichkeit (Water solubility; [2]) was “wasserlöslich”.

With `O=C(NC(CO)CO)c1c(I)c(OC(CO)CO)c(I)c(C(=O)NC(CO)CO)c1I` [Beispiel 9, 5-(1,3-Dihydroxyisopropyl)oxy-2,4,6-trijodisophthalsäure-bis(1,3-di-hydroxyisopropylamid)] the Wasserlöslichkeit (Water solubility; [2]) was “in Wasser leicht löslich”.

For `CN(C[C@H](O)[C@@H](O)[C@H](O)[C@H](O)CO)C(=O)COc1c(Br)c(C(=O)NC(CO)CO)c(Br)c(C(=O)NC(CO)CO)c1Br` [Beispiel 29, 5(N-Methyl-N-2,3,4,5,6-pentahydroxyhexyl)aminocarbonylmethoxy-2,4,6-tribromisophthalsäure-bis(1,3-dihydroxyisopropylamid)], the solubility (Water solubility; bei 20 °C) was > 1000 mg/mL.

In the case of “5-(3,6,9-Trioxadecyl)oxy-2,4,6-tribromisophthalsäure-bis(1,3-dihydroxy- isopropylamid) [Beispiel 7]”, the Wasserlöslichkeit (Water solubility; bei 20 °C) is reported as > 100 % (g/v) and the “sterilisieren durch Erhitzen” value [1] is reported as “ohne Schwierigkeiten”.

With `CCOCCOCCOc1c(I)c(C(=O)N(C)CC(O)CO)c(I)c(C(=O)N(C)CC(O)CO)c1I` (centres unmarked) [Beispiel 40, 5-(3,6-Dioxaoctyl)oxy-2,4,6-trijodisophthalsäure-bis(N-methyl-N-2,3-dihydroxypropylamid)] the solubility (Water solubility; bei 25 °C) was > 600 mg/mL.

— patent EP0185130A1, “5-Alkoxy-2,4,6-triodo or tribromo-isophthalic-acid derivatives, process for their preparation and X-ray contrast agents containing them” (BRACCO INDUSTRIA CHIMICA Società per Azioni, priority 1984, dated 1986)
